Test system: hepatocytic differentiated human ductal organoids
Assay: EdU incorporation in hepatocytic differentiated human ductal organoids (HDO)
Format: cell-based
Conditions: for EdU+ cells compared to vehicle only: 20 ng/ml, 6 hours, William's E without L-glutamine (FIG. 19A-B)
Protocol: Human ductal organoids. The normal human liver tissue was obtained through the Cooperative Human Tissue Network (CHTN) at Vanderbilt University Medical Center. The liver was cut into very small pieces in liver digestion medium (Gibco, Waltham, MA; 17703-034). The cell suspension was filtered through a 100-μm cell strainer. The flow through was then centrifuged for 2 min at 100 g, 4° C., and the cell pellet resuspended in ice-cold DMEM (Gibco, Waltham, MA; 11885-084, supplemented by 5% FBS) and centrifuged for 2 min at 300 g. The cell pellet was gently resuspended in Matrigel® (Corning, Corning, NY; 356231) and a […] dome plated in a 24-well plate. The plate was incubated for 10-15 min at 37° C. After solidifying, complete HepatiCult™ Organoid Initiation Medium (OIM) (STEMCELL Technologies, Vancouver, Canada; 100-0384) was added. For passaging, the Matrigel dome was dissociated using TrypLE (Thermo Fisher Scientific, Waltham, MA; 12604013) and incubated at 37° C. for 5 mins. Organoids were washed by resuspending in advanced DMEM/F12 and consecutive resuspension of the organoid pellet. Organoids were resuspended at a 1:10 dilution in Matrigel® and cultured in complete HepatiCult™ Organoid Growth Medium (OGM) (STEMCELL Technologies, Vancouver, Canada; 100-0385) for organoid expansion. For hepatocytic differentiation of hepatic ductal organoids, culture medium was changed to complete HepatiCult™ Organoid Differentiation Medium (ODM) (STEMCELL Technologies, 100-0383) 4 days after passaging. Vehicle, NTF3, BDNF, HGF (20 ng/ml final concentration) or Taletrectinib (Fisher Scientific, Waltham, MA; 502030245, final concentration 10 nM) or torin2 (Fisher Scientific, Waltham, MA; s2817, final concentration 25 nM) were diluted in William's E (without L-glutamine) and added to organoids.
EdU incorporation and imaging in HDO and mpPHH. A chamber slide was pre-chilled on ice and coated with Matrigel®. Chamber slide was then incubated for 3 min at 37° C. to solidify and organoids plated in 0.02% Matrigel®/complete media into coated chamber slides. Organoids were grown in complete organoid growth media (OGM) for approximately 4 days followed by incubation in organoid differentiation media (ODM) for another 4 days. Organoids were changed to William's E medium 1 day prior to experiment. Vehicle or NTF3, BDNF, HGF (20 ng/ml final concentration each) or Taletrectinib (Fisher Scientific, Waltham, MA; 502030245, final concentration 10 nM) were diluted in William's E (without L-glutamine) and added to organoids. CLICK-iT™ EdU (EdU final concentration […] incubated together with the vehicle, NTF3, BDNF or HGF). After 6 hours, organoids were fixed with 4% paraformaldehyde and permeabilized with 0.5% Triton-X 100. Further processing was performed according to CLICK-ITT EdU manufacturer's instructions. mpPHHs were seeded on collagen coated chamber slides and grown in complete hepatocyte medium (Lonza, Basel, Switzerland). Prior to EdU incorporation assays, mpPHHs were cultured in William's E medium. Vehicle or NTF3, BDNF, HGF (20 ng/ml final concentration each) or Taletrectinib (Fisher Scientific, Waltham, MA; 502030245, final concentration 10 nM) were diluted in William's E (without L-glutamine) and added to mpPHHs. Organoids were imaged in PBS in chamber slides, mpHHs were mounted with fluoromount. Five to fifteen images of random high-power fields were obtained per experiment per treatment and EdU+/Hoechst 33342+ nuclei versus all Hoechst 33342+ nuclei quantified.

## NTF3: neurotrophin-3, recombinant protein; HSC-derived hepatocyte mitogen, ligand of TRKA, TRKB, TRKC
  EdU+ cells compared to vehicle only: significantly increased EdU+ cells
NTF3 20 ng/ml (FIG. 19C-D)
  EdU+ cells compared to vehicle alone, taletrectinib experiment: significant increase of EdU+ cells

B1: BDNF: brain-derived neurotrophic factor, neurotrophin specific for TrkB (protein)
chain: HSDPARRGELSVCDSISEWVTAADKKTAVDMSGGTVTVLEKVPVSKGQLKQYFYETKCNPMGYTKEGCRGIDKRHWNSQCRTTQSYVRALTMDSKKRIGWRFIRIDTSCVCTLTIKRGR
  EdU+ cells compared to vehicle only: significantly increased EdU+ cells

B2: HGF: hepatocyte growth factor, complete hepatocyte mitogen used as comparator (protein, UniProt Q08048 33-495; Q08048 496-728, looked up)
Hepatocyte growth factor …: QKKRRNTLHEFKKSAKTTLTKEDPLLKIKTKKVNSADECANRCIRNRGFTFTCKAFVFDKSRKRCYWYPFNSMSSGVKKGFGHEFDLYENKDYIRNCIIGKGGSYKGTVSITKSGIKCQPWNSMIPHEHSFLPSSYRGKDLQENYCRNPRGEEGGPWCFTSNPEVRYEVCDIPQCSEVECMTCNGESYRGPMDHTESGKTCQRWDQQTPHRHKFLPERYPDKGFDDNYCRNPDGKPRPWCYTLDPDTPWEYCAIKTCAHSAVNETDVPMETTECIQGQGEGYRGTSNTIWNGIPCQRWDSQYPHKHDITPENFKCKDLRENYCRNPDGAESPWCFTTDPNIRVGYCSQIPKCDVSSGQDCYRGNGKNYMGNLSKTRSGLTCSMWDKNMEDLHRHIFWEPDASKLNKNYCRNPDDDAHGPWCYTGNPLIPWDYCPISRCEGDTTPTIVNLDHPVISCAKTKQLR
Hepatocyte growth factor beta …: VVNGIPTQTTVGWMVSLKYRNKHICGGSLIKESWVLTARQCFPARNKDLKDYEAWLGIHDVHERGEEKRKQILNISQLVYGPEGSDLVLLKLARPAILDNFVSTIDLPSYGCTIPEKTTCSIYGWGYTGLINADGLLRVAHLYIMGNEKCSQHHQGKVTLNESELCAGAEKIGSGPCEGDYGGPLICEQHKMRMVLGVIVPGRGCAIPNRPGIFVRVAYYAKWIHKVILTYKL
  EdU+ cells compared to vehicle only: significantly increased EdU+ cells

Source: patent US20250346643A1, “TROPOMYOSIN KINASE RECEPTOR (TRK) LIGANDS AS THERAPEUTICS TO SUPPORT LIVER REGENERATION” (Vanderbilt University, priority 2024, published 2025)
